Assays:
[1] = biological target: T1, Recombinant JAK1 (Amino acids 850-1154) (Homo sapiens, UniProt P23458); assay: Kinase-Glo Luminescent Kinase Assay, recombinant JAK1; type: biochemical; settings: 200 μg/ml Poly Glu-Tyr (4:1), ATP 1 uM, 90 min room temperature, luminescence
T1 construct: Recombinant JAK1 (Amino acids 850-1154; NM_002227.2); made in house; host or cells: baculovirus expression system (Bac-to-Bac)
Description: (§1) Recombinant JAK1 (Amino acids 850-1154; NM_002227.2), JAK2 (Amino acids 808-1132; NM_004972.3) and JAK3 (Amino acids 781-1124; NM_000215.3) used in the studies were expressed using Invitrogen's Bac-to-Bac baculovirus expression system according to manufacturer's instructions. Adenosine 5′-triphosphate was obtained from Sigma Aldrich chemicals (Cat # A7699). Poly Glu-Tyr (4:1) sodium salt was obtained from Sigma Aldrich (Cat # P0275), Kinase Glo® Luminescent Kinase assay kit was obtained from Promega (Cat # V6713) Kinase activity was assessed by Promega Kinase-Glo® Luminescent Kinase Assay kit using 200 μg/ml Poly Glu-Tyr (4:1) as substrate and ATP at 1 uM concentration. The reactions were carried out in 384 well plates in total reaction volume of 20 uL. Reaction mixtures contained 50 mM HEPES pH 7.4, 5 mM MgCl2, 1 mM DTT, 0.01% BSA, 0.01% Tween 20. Kinase was pre-incubated with compounds or 1% DMSO for 5 min before addition of substrate and ATP to check for inhibition. Kinase reactions were carried out at room temperature for 90 min. The reactions were stopped by adding 5 μl of Kinase Glo® reagent & 10 μl of reaction mixture followed by measuring luminescence. The luminescent signal is correlated with the amount of ATP present at the end of kinase reaction and is inversely correlated with the amount of kinase activity. For each data point, % inhibition is calculated based on uninhibited reaction (without compound) which is considered as 100% activity over no enzyme or substrate controls. Dose response data is then fit using a four parameter logistic equation using Graph-pad Prism 5 software to determine inhibition constant 50 (IC50).

[2] = biological target: T2, Recombinant JAK3 (Amino acids 781-1124) (Homo sapiens, UniProt P52333); assay: Kinase-Glo Luminescent Kinase Assay, recombinant JAK3; type: biochemical; settings: 200 μg/ml Poly Glu-Tyr (4:1), ATP 1 uM, 90 min room temperature, luminescence
T2 construct: JAK3 (Amino acids 781-1124; NM_000215.3); made in house; host or cells: baculovirus expression system (Bac-to-Bac)
Description: as §1

T1 sequence (P23458 850-1154): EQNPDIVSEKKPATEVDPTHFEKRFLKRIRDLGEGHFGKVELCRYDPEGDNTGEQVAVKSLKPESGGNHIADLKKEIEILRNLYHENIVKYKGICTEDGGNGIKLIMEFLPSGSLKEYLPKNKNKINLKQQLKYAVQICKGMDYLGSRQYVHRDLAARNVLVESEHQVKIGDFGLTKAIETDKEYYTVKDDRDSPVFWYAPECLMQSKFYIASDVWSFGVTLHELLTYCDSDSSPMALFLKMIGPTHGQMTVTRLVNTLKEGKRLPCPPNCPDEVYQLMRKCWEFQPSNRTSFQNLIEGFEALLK
T2 sequence (P52333 781-1124): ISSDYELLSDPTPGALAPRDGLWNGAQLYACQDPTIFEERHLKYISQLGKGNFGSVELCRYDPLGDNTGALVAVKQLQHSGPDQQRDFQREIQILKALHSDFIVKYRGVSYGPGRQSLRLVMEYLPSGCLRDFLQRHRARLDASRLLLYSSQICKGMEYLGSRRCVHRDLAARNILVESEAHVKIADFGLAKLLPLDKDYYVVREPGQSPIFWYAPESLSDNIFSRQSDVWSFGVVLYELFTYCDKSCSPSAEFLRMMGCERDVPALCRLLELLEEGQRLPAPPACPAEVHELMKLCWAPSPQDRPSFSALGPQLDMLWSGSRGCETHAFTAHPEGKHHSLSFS

Compound	IC50 [1] [nM]	IC50 [2] [nM]
CC1CCC(C(=O)NC2CC2)CN1c1ccnc2cnc3[nH]ccc3c12 (single isomer, unassigned) [Ex. 88A, cis-N-cyclopropyl-6-methyl-1-(3H-pyrrolo[3,2-f][1,7]naphthyridin-9-yl)piperidine-3-carboxamide]	> 20	1 to 20
CC1CCC(C(=O)NC2CC2)CN1c1ccnc2cnc3[nH]ccc3c12 (single isomer, unassigned) [Ex. 88B, trans-N-cyclopropyl-6-methyl-1-(3H-pyrrolo[3,2-f][1,7]naphthyridin-9-yl)piperidine-3-carboxamide]	> 20	1 to 20
CCOC(=O)c1cnc2cnc3c(ccn3S(=O)(=O)c3ccc(C)cc3)c2c1O [Comp. 8, Ethyl 9-hydroxy-3-(p-tolylsulfonyl)pyrrolo[3,2-f][1,7]naphthyridine-8-carboxylate]	–	> 20
CC(C)(C)OC(=O)N1CCCC(c2ccnc3cnc4[nH]ccc4c23)C1 (stereo not drawn) [Comp. 41, tert-butyl 3-(3H-pyrrolo[3,2-f][1,7]naphthyridin-9-yl)piperidine-1-carboxylate]	1 to 20	1 to 20
CC(C)(C)OC(=O)N1CCC(c2ccnc3cnc4[nH]ccc4c23)C1 (stereo not drawn) [Comp. 50, tert-butyl 3-(3H-pyrrolo[3,2-f][1,7]naphthyridin-9-yl)pyrrolidine-1-carboxylate]	1 to 20	> 20
O=C(CC(F)(F)F)N1CCC(c2ccnc3cnc4[nH]ccc4c23)CC1 [Comp. 88, 3,3,3-trifluoro-1-[4-(3H-pyrrolo[3,2-f][1,7]naphthyridin-9-yl)-1-piperidyl]propan-1-one]	> 20	> 20
NC1CCN(c2ccnc3cnc4[nH]ccc4c23)C1 (stereo not drawn) [Comp. 125, 1-(3H-pyrrolo[3,2-f][1,7]naphthyridin-9-yl)pyrrolidin-3-amine]	–	> 20
CC(C)(C)OC(=O)N1CCN(c2ccnc3cnc4[nH]ccc4c23)CC1 [Comp. 127, tert-butyl 4-(3H-pyrrolo[3,2-f][1,7]naphthyridin-9-yl)piperazine-1-carboxylate]	> 20	> 20
O=C(C1CC1)N1CCCC(c2ccnc3cnc4[nH]ccc4c23)C1 (stereo not drawn) [Ex. 2, cyclopropyl-[3-(3H-pyrrolo[3,2-f][1,7]naphthyridin-9-yl)-1-piperidyl]methanone]	1 to 20	1 to 20
CC(C)C(=O)N1CCCC(c2ccnc3cnc4[nH]ccc4c23)C1 (stereo not drawn) [Ex. 3, 2-methyl-1-[3-(3H-pyrrolo[3,2-f][1,7]naphthyridin-9-yl)-1-piperidyl]propan-1-one]	> 20	> 20
O=C(CC(F)(F)F)N1CCCC(c2ccnc3cnc4[nH]ccc4c23)C1 (stereo not drawn) [Ex. 4, 3,3,3-trifluoro-1-[3-(3H-pyrrolo[3,2-f][1,7]naphthyridin-9-yl)-1-piperidyl]propan-1-one]	1 to 20	1 to 20
O=C(CC(F)(F)F)N1CCC[C@@H](c2ccnc3cnc4[nH]ccc4c23)C1 [Ex. 4B, (S)3,3,3-trifluoro-1-[3-(3H-pyrrolo[3,2-f][1,7]naphthyridin-9-yl)-1-piperidyl]propan-1-one]	–	> 20
CC(C)CC(=O)N1CCCC(c2ccnc3cnc4[nH]ccc4c23)C1 (stereo not drawn) [Ex. 5, 3-methyl-1-[3-(3H-pyrrolo[3,2-f][1,7]naphthyridin-9-yl)-1-piperidyl]butan-1-one]	1 to 20	> 20
O=C(CC(F)(F)F)N1CCC(c2ncnc3cnc4[nH]ccc4c23)C1 (stereo not drawn) [Ex. 33, 3,3,3-Trifluoro-1-[3-(3H-3,4,6,8-tetraaza-cyclopenta[a]naphthalen-9-yl)-pyrrolidin-1-yl]-propan-1-one]	–	> 20
N#CCC(=O)N1CCC(c2ncnc3cnc4[nH]ccc4c23)C1 (stereo not drawn) [Ex. 34, 3-Oxo-3-[3-(3H-3,4,6,8-tetraaza-cyclopenta[a]naphthalen-9-yl)-pyrrolidin-1-yl]-propionitrile]	–	> 20
O=C(C1CC1)N1CCC(c2ncnc3cnc4[nH]ccc4c23)C1 (stereo not drawn) [Ex. 35, Cyclopropyl-[3-(3H-3,4,6,8-tetraaza-cyclopenta[a]naphthalen-9-yl)-pyrrolidin-1-yl]-methanone]	–	> 20
CC(C)C(=O)N1CCC(c2ncnc3cnc4[nH]ccc4c23)C1 (stereo not drawn) [Ex. 36, 2-Methyl-1-[3-(3H-3,4,6,8-tetraaza-cyclopenta[a]naphthalen-9-yl)-pyrrolidin-1-yl]-propan-1-one]	–	> 20
O=C(CCC(F)(F)F)N1CCC(c2ncnc3cnc4[nH]ccc4c23)C1 (stereo not drawn) [Ex. 37, 4,4,4-Trifluoro-1-[3-(3H-3,4,6,8-tetraaza-cyclopenta[a]naphthalen-9-yl)-pyrrolidin-1-yl]-butan-1-one]	–	> 20

Compound	IC50 [1] [nM]	IC50 [2] [nM]
CC(C)(C)C(=O)N1CCC(c2ncnc3cnc4[nH]ccc4c23)C1 (stereo not drawn) [Ex. 38, 2,2-Dimethyl-1-[3-(3H-3,4,6,8-tetraaza-cyclopenta[a]naphthalen-9-yl)-pyrrolidin-1-yl]-propan-1-one]	–	> 20
CC(C)CS(=O)(=O)N1CCC(c2ncnc3cnc4[nH]ccc4c23)C1 (stereo not drawn) [Ex. 40, 9-[1-(2-Methyl-propane-1-sulfonyl)-pyrrolidin-3-yl]-3H-3,4,6,8-tetraaza-cyclopenta[a]naphthalene]	–	> 20
N#CCC(=O)N1CC=C(c2ccnc3cnc4[nH]ccc4c23)C1 [Ex. 41, 3-oxo-3-[3-(3H-pyrrolo[3,2-f][1,7]naphthyridin-9-yl)-2,5-dihydropyrrolo-1-yl]propanenitrile]	–	> 20
O=C(CC(F)(F)F)N1CC=C(c2ccnc3cnc4[nH]ccc4c23)C1 [Ex. 42, 3,3,3-trifluoro-1-[3-(3H-pyrrolo[3,2-f][1,7]naphthyridin-9-yl)-2,5-dihyropyrrol-1-yl]propan-1-one]	–	> 20
c1cc(N2CCOCC2)c2c(cnc3[nH]ccc32)n1 [Ex. 64, 4-(3H-pyrrolo[3,2-f][1,7]naphthyridin-9-yl)morpholine]	–	> 20
CN(C(=O)C1CCCC1)C1CCCN(c2ccnc3cnc4[nH]ccc4c23)C1 (stereo not drawn) [Ex. 66, N-methyl-N-[1-(3H-pyrrolo[3,2-f][1,7]naphthyridin-9-yl)-3-piperidyl]cyclopentane-carboxamide]	–	> 20
COCCNC(=O)C1CCCN(c2ccnc3cnc4[nH]ccc4c23)C1 (stereo not drawn) [Ex. 69, N-(2-methoxyethyl)-1-(3H-pyrrolo[3,2-f][1,7]naphthyridin-9-yl)piperidine-3-carboxamide]	–	> 20
c1cc(N2CCCC(N3CCOCC3)C2)c2c(cnc3[nH]ccc32)n1 (stereo not drawn) [Ex. 70, 4-[1-(3H-pyrrolo[3,2-f][1,7]naphthyridin-9-yl)-3-piperidiyl] morpholine]	–	> 20
CC(C)CS(=O)(=O)NC1CCN(c2ccnc3cnc4[nH]ccc4c23)C1 (stereo not drawn) [Ex. 93, 2-methyl-N-[1-(3H-pyrrolo[3,2-f][1,7]naphthyridin-9-yl)pyrrolidin-3-yl]propane-1-sulfonamide]	–	> 20
N#CCS(=O)(=O)NC1CCN(c2ccnc3cnc4[nH]ccc4c23)C1 (stereo not drawn) [Ex. 94, 1-cyano-N-[1-(3H-pyrrolo[3,2-f][1,7]naphthyridin-9-yl)pyrrolidin-3-yl]methanesulfonamide]	–	1 to 20
CC(C)NC(=O)NC1CCN(c2ccnc3cnc4[nH]ccc4c23)C1 (stereo not drawn) [Ex. 95, 1-isopropyl-3-[1-(3H-pyrrolo[3,2-f][1,7]naphthyridin-9-yl)pyrrolidin-3-yl]urea]	–	> 20
O=C(NC1CCN(c2ccnc3cnc4[nH]ccc4c23)C1)C1CC1 (stereo not drawn) [Ex. 96, N-[1-(3H-pyrrolo[3,2-f][1,7]naphthyridin-9-yl)pyrrolidin-3-yl]cyclopropanecarbox-amide]	–	> 20
CC(C)C(=O)NC1CCN(c2ccnc3cnc4[nH]ccc4c23)C1 (stereo not drawn) [Ex. 97, 2-methyl-N-[1-(3H-pyrrolo[3,2-f][1,7]naphthyridin-9-yl)pyrrolidin-3-yl]propanamide]	–	> 20
O=C(CC1CC1)NC1CCN(c2ccnc3cnc4[nH]ccc4c23)C1 (stereo not drawn) [Ex. 98, 2-cyclopropyl-N-[1-(3H-pyrrolo[3,2-f][1,7]naphthyridin-9-yl)pyrrolidin-3-yl]acetamide]	–	> 20
N#CCC(=O)NC1CCN(c2ccnc3cnc4[nH]ccc4c23)C1 (stereo not drawn) [Ex. 99, 2-cyano-N-[1-(3H-pyrrolo[3,2-f][1,7]naphthyridin-9-yl)pyrrolidin-3-yl]acetamide]	–	> 20
O=C(CC(F)(F)F)NC1CCN(c2ccnc3cnc4[nH]ccc4c23)C1 (stereo not drawn) [Ex. 100, 3,3,3-trifluoro-N-[1-(3H-pyrrolo[3,2-f][1,7]naphthyridin-9-yl)pyrrolidin-3-yl]propanamide]	–	1 to 20
CS(=O)(=O)NC1CCN(c2ccnc3cnc4[nH]ccc4c23)C1 (stereo not drawn) [Ex. 101, N-[1-(3H-pyrrolo[3,2-f][1,7]naphthyridin-9-yl)pyrrolidin-3-yl]methanesulfonamide]	–	1 to 20
